Test results published in PubChem BioAssay (NCI).
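Compound exposure: 48 hours, 5 concentrations, 96-well plates. TGI marks complete inhibition of growth.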

Columns and labels:
Assay in all cases: NCI-60 cell line screen, 48 h
EKVX NSCLC = test system: EKVX NSCLC
RPMI-8226 leukemia = test system: RPMI-8226 leukemia
M14 melanoma = test system: M14 melanoma
SF-268 CNS = test system: SF-268 CNS
HOP-18 NSCLC = test system: HOP-18 NSCLC
KM12 colon = test system: KM12 colon
K-562 leukemia = test system: K-562 leukemia
UACC-62 melanoma = test system: UACC-62 melanoma
U251 CNS = test system: U251 CNS
HCC-2998 colon = test system: HCC-2998 colon
MOLT-4 leukemia = test system: MOLT-4 leukemia
NCI-H522 lung = test system: NCI-H522 lung
LXFL 529 NSCLC = test system: LXFL 529 NSCLC
A549 NSCLC = test system: A549 NSCLC
NCI-H226 lung = test system: NCI-H226 lung
SW-620 colon = test system: SW-620 colon
UACC-257 melanoma = test system: UACC-257 melanoma
TK-10 renal = test system: TK-10 renal
IGROV1 ovarian = test system: IGROV1 ovarian
OVCAR-4 ovarian = test system: OVCAR-4 ovarian
KM20L2 colon = test system: KM20L2 colon
HOP-62 NSCLC = test system: HOP-62 NSCLC
SN12C renal = test system: SN12C renal
HCT-15 colon = test system: HCT-15 colon
OVCAR-3 ovarian = test system: OVCAR-3 ovarian
SNB-75 CNS = test system: SNB-75 CNS
MALME-3M melanoma = test system: MALME-3M melanoma
SK-OV-3 ovarian = test system: SK-OV-3 ovarian
CCRF-CEM leukemia = test system: CCRF-CEM leukemia
SK-MEL-5 melanoma = test system: SK-MEL-5 melanoma
NCI-H460 lung = test system: NCI-H460 lung
LOX IMVI melanoma = test system: LOX IMVI melanoma
M19-MEL melanoma = test system: M19-MEL melanoma
UO-31 renal = test system: UO-31 renal
HT29 colon = test system: HT29 colon
RXF 393 renal = test system: RXF 393 renal
XF 498 CNS = test system: XF 498 CNS
A498 renal = test system: A498 renal
HOP-92 NSCLC = test system: HOP-92 NSCLC
COLO 205 colon = test system: COLO 205 colon
CAKI-1 renal = test system: CAKI-1 renal
SK-MEL-2 melanoma = test system: SK-MEL-2 melanoma
SNB-78 CNS = test system: SNB-78 CNS
ACHN renal = test system: ACHN renal
DMS 273 small cell lung = test system: DMS 273 small cell lung
HCT-116 colon = test system: HCT-116 colon
OVCAR-5 ovarian = test system: OVCAR-5 ovarian
786-0 renal = test system: 786-0 renal
SNB-19 CNS = test system: SNB-19 CNS
NCI-H23 lung = test system: NCI-H23 lung
SK-MEL-28 melanoma = test system: SK-MEL-28 melanoma
DLD-1 colon = test system: DLD-1 colon
DMS 114 small cell lung = test system: DMS 114 small cell lung
OVCAR-8 ovarian = test system: OVCAR-8 ovarian
HL-60(TB) leukemia = test system: HL-60(TB) leukemia
SR leukemia = test system: SR leukemia
SF-295 CNS = test system: SF-295 CNS

Q: How did the TGI (EKVX NSCLC) turn out when `NC(=O)c1ccccc1NC(=O)C(=O)C(C(=O)c1ccc2ccccc2c1)C1OC(=O)c2ccccc21` (centres undefined) was run?
A: The TGI was 75.6 µM.

Q: What about the TGI (RPMI-8226 leukemia) of the same compound?
A: Its TGI is 48.1 µM.

Q: What about the TGI (M14 melanoma) of the same compound?
A: The TGI was 30 µM.

Q: What about the TGI (SF-268 CNS) of the same compound?
A: The TGI was 37.1 µM.

Q: And the TGI (HOP-18 NSCLC)?
A: The TGI was 22.7 µM.

Q: And the TGI (KM12 colon)?
A: The TGI was 49 µM.

Q: What about the TGI (K-562 leukemia) of the same compound?
A: The TGI was 83.9 µM.

Q: What about the TGI (UACC-62 melanoma) of the same compound?
A: Its TGI is 22.5 µM.

Q: And the TGI (U251 CNS)?
A: The TGI was 25.2 µM.

Q: What about the TGI (HCC-2998 colon) of the same compound?
A: Its TGI is 20.1 µM.

Q: And the TGI (MOLT-4 leukemia)?
A: The TGI was 23.7 µM.

Q: What about the TGI (NCI-H522 lung) of the same compound?
A: Its TGI is 43.2 µM.

Q: What about the TGI (LXFL 529 NSCLC) of the same compound?
A: Its TGI is 21.9 µM.

Q: And the TGI (A549 NSCLC)?
A: Its TGI is 50.5 µM.

Q: What about the TGI (NCI-H226 lung) of the same compound?
A: Its TGI is 9.88 µM.

Q: What about the TGI (SW-620 colon) of the same compound?
A: Its TGI is 27.9 µM.

Q: And the TGI (UACC-257 melanoma)?
A: The TGI was 37.4 µM.

Q: And the TGI (TK-10 renal)?
A: The TGI was 48.9 µM.

Q: What about the TGI (IGROV1 ovarian) of the same compound?
A: Its TGI is 46.6 µM.

Q: And the TGI (OVCAR-4 ovarian)?
A: Its TGI is 32.9 µM.

Q: And the TGI (KM20L2 colon)?
A: Its TGI is 81.4 µM.

Q: What about the TGI (HOP-62 NSCLC) of the same compound?
A: The TGI was 24.2 µM.

Q: And the TGI (SN12C renal)?
A: Its TGI is 37.1 µM.

Q: And the TGI (HCT-15 colon)?
A: Its TGI is 41.5 µM.

Q: And the TGI (OVCAR-3 ovarian)?
A: Its TGI is 39.6 µM.

Q: What about the TGI (SNB-75 CNS) of the same compound?
A: Its TGI is 45.2 µM.

Q: And the TGI (MALME-3M melanoma)?
A: Its TGI is 26.3 µM.

Q: What about the TGI (SK-OV-3 ovarian) of the same compound?
A: The TGI was 75.2 µM.

Q: What about the TGI (CCRF-CEM leukemia) of the same compound?
A: The TGI was 77.6 µM.

Q: What about the TGI (SK-MEL-5 melanoma) of the same compound?
A: The TGI was 24.6 µM.

Q: What about the TGI (NCI-H460 lung) of the same compound?
A: Its TGI is greater than 100 µM.

Q: And the TGI (LOX IMVI melanoma)?
A: Its TGI is 29.9 µM.

Q: And the TGI (M19-MEL melanoma)?
A: Its TGI is 25.5 µM.

Q: What about the TGI (UO-31 renal) of the same compound?
A: The TGI was 29.4 µM.

Q: What about the TGI (HT29 colon) of the same compound?
A: The TGI was 75.8 µM.

Q: What about the TGI (RXF 393 renal) of the same compound?
A: The TGI was 16.8 µM.

Q: What about the TGI (XF 498 CNS) of the same compound?
A: The TGI was 12.8 µM.

Q: What about the TGI (A498 renal) of the same compound?
A: The TGI was greater than 100 µM.

Q: And the TGI (HOP-92 NSCLC)?
A: The TGI was 32.3 µM.

Q: And the TGI (COLO 205 colon)?
A: The TGI was 24.6 µM.

Q: And the TGI (CAKI-1 renal)?
A: Its TGI is 33 µM.

Q: What about the TGI (SK-MEL-2 melanoma) of the same compound?
A: The TGI was 33.2 µM.

Q: And the TGI (SNB-78 CNS)?
A: The TGI was greater than 100 µM.

Q: And the TGI (ACHN renal)?
A: Its TGI is greater than 100 µM.

Q: And the TGI (DMS 273 small cell lung)?
A: Its TGI is 38.5 µM.

Q: And the TGI (HCT-116 colon)?
A: The TGI was 23 µM.

Q: And the TGI (OVCAR-5 ovarian)?
A: Its TGI is 67.1 µM.

Q: What about the TGI (786-0 renal) of the same compound?
A: Its TGI is 19.9 µM.

Q: And the TGI (SNB-19 CNS)?
A: Its TGI is 20.7 µM.

Q: `Clc1ccccc1C(n1cc(Br)cn1)n1cc(Br)cn1` was tested. Which TGI (RPMI-8226 leukemia) did it give?
A: The TGI was 46.3 µM.

Q: And the TGI (M14 melanoma)?
A: The TGI was 36.9 µM.

Q: And the TGI (KM12 colon)?
A: The TGI was 40.8 µM.

Q: And the TGI (K-562 leukemia)?
A: Its TGI is greater than 100 µM.

Q: What about the TGI (U251 CNS) of the same compound?
A: The TGI was greater than 100 µM.

Q: What about the TGI (MOLT-4 leukemia) of the same compound?
A: The TGI was 39.2 µM.

Q: What about the TGI (NCI-H522 lung) of the same compound?
A: The TGI was greater than 100 µM.

Q: And the TGI (LXFL 529 NSCLC)?
A: Its TGI is greater than 100 µM.

Q: And the TGI (UACC-257 melanoma)?
A: The TGI was 31.7 µM.

Q: What about the TGI (TK-10 renal) of the same compound?
A: Its TGI is greater than 100 µM.

Q: And the TGI (NCI-H23 lung)?
A: Its TGI is greater than 100 µM.

Q: What about the TGI (OVCAR-4 ovarian) of the same compound?
A: Its TGI is greater than 100 µM.

Q: And the TGI (SK-MEL-28 melanoma)?
A: The TGI was greater than 100 µM.

Q: What about the TGI (HOP-62 NSCLC) of the same compound?
A: The TGI was 57.9 µM.

Q: And the TGI (SN12C renal)?
A: The TGI was 30.6 µM.

Q: What about the TGI (DLD-1 colon) of the same compound?
A: Its TGI is 54 µM.

Q: What about the TGI (MALME-3M melanoma) of the same compound?
A: Its TGI is 46.9 µM.

Q: And the TGI (CCRF-CEM leukemia)?
A: Its TGI is 93.1 µM.

Q: What about the TGI (SK-MEL-5 melanoma) of the same compound?
A: The TGI was 23.1 µM.

Q: And the TGI (NCI-H460 lung)?
A: The TGI was 28.1 µM.

Q: And the TGI (LOX IMVI melanoma)?
A: Its TGI is 31.2 µM.

Q: And the TGI (M19-MEL melanoma)?
A: Its TGI is 34.5 µM.

Q: What about the TGI (DMS 114 small cell lung) of the same compound?
A: The TGI was 56 µM.

Q: And the TGI (UO-31 renal)?
A: Its TGI is 32.6 µM.

Q: And the TGI (HT29 colon)?
A: The TGI was 29 µM.

Q: What about the TGI (RXF 393 renal) of the same compound?
A: Its TGI is 34.4 µM.

Q: What about the TGI (OVCAR-8 ovarian) of the same compound?
A: Its TGI is 55.1 µM.

Q: And the TGI (XF 498 CNS)?
A: The TGI was 40.6 µM.

Q: What about the TGI (A498 renal) of the same compound?
A: The TGI was 35.9 µM.

Q: And the TGI (CAKI-1 renal)?
A: The TGI was greater than 100 µM.

Q: And the TGI (HL-60(TB) leukemia)?
A: Its TGI is 44.6 µM.

Q: And the TGI (SR leukemia)?
A: The TGI was 92.9 µM.

Q: What about the TGI (SK-MEL-2 melanoma) of the same compound?
A: The TGI was 45.6 µM.

Q: What about the TGI (SF-295 CNS) of the same compound?
A: The TGI was 43.1 µM.

Q: What about the TGI (SNB-78 CNS) of the same compound?
A: Its TGI is greater than 100 µM.

Q: What about the TGI (ACHN renal) of the same compound?
A: The TGI was 55.2 µM.

Q: What about the TGI (DMS 273 small cell lung) of the same compound?
A: Its TGI is 53 µM.

Q: And the TGI (HCT-116 colon)?
A: Its TGI is 42.9 µM.

Q: What about the TGI (OVCAR-5 ovarian) of the same compound?
A: The TGI was 49 µM.

Q: And the TGI (SNB-19 CNS)?
A: Its TGI is greater than 100 µM.
